What all share (assay): NCI anticancer screen, dose series, 48 h
For experiment [1], the system named is HCC-2998 colon.
Experiment [2] concerns HOP-62 NSCLC.
In experiment [3] the test system is HS 578T breast.
Experiment [4] concerns MALME-3M melanoma.
The test system of experiment [5] is MOLT-4 leukemia.
The subject of experiment [6] is NCI/ADR-RES ovarian.
For experiment [7], the system named is SR leukemia.
In experiment [8] the test system is SW-620 colon.
In experiment [9] the test system is UACC-62 melanoma.
Experiment [10] has as its system UO-31 renal.

The structures appear in SMILES notation. Where “and” joins values, the source holds several entries; their conditions need not be identical. Equal entries are not always repeated.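 Tested at 5 concentrations; 48 h exposure; 96-well plates; endpoints linearly interpolated, else capped at highest concentration. GI50: concentration for 50% inhibition of growth. The concentration for full growth arrest is given as TGI.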

Regarding `Nc1c(C(=O)c2cccc(-c3cccnc3)c2)cnn1-c1ccc(F)cc1`, the GI50 is above 25 µM in experiment [1]; above 17.3 µM in [2]; above 25 µM in experiment [3]; above 25 µM in [4]; above 25 µM in experiment [5]; above 20.5 µM in experiment [6]. In addition, the GI50 in experiment [7], in experiment [8], in experiment [9] and in [10] was above 25 µM each time. Further, the TGI in experiment [1], in experiment [2], in [3], in experiment [4], in experiment [5] and in experiment [6] was above 25 µM throughout. Moreover, the TGI in experiment [7], in [8], in experiment [9] and in experiment [10] was above 25 µM in each case.

Turning to `COc1ccc([N+](=O)[O-])c2c(NCCCN(C)C)c(C)c(C)nc12`, the TGI in [1], in experiment [2], in experiment [3], in [4], in experiment [5] and in [6] was above 100 µM each time. Also, the TGI in experiment [7] is 56.6 µM; in experiment [8], above 100 µM; in [9], above 100 µM; in experiment [10], above 100 µM.

On to `CC(=O)CC[N+](C)(C)C`, for which the TGI is 68.1 µM in experiment [1]; above 100 µM in experiment [2]; above 39.3 µM in experiment [3]; 24.2 µM in experiment [4]; 24.7 µM in experiment [5]; above 76.9 µM in experiment [6]. Moreover, the TGI in experiment [7] was 21.5 µM; in experiment [8], 27.8 µM; in experiment [9], 52.4 µM; in experiment [10], 67.8 µM.

Consider `COC(=O)c1csc(-c2csc(CCNC(=O)OC(C)(C)C)n2)n1`, for which the TGI in experiment [1], in experiment [2], in experiment [3], in experiment [4], in experiment [5] and in [6] was above 100 µM in each case. Moreover, the TGI in experiment [7], in [8], in [9] and in experiment [10] was above 100 µM throughout.

Regarding `CCC/C=C/C=C/C(=O)OC1/C(=C/C(=O)OC)CC2CC(C(C)O)OC(=O)CC(O)CC3CC(OC(C)=O)C(C)(C)C(O)(CC4C/C(=C/C(=O)OC)CC(/C=C/C(C)(C)C1(O)O2)O4)O3` (stereo unspecified), the GI50 is > 10.9 µM and 4.72 µM and > 12.5 µM in experiment [1]; 10.9 µM and > 12.5 µM in [2]; above 12.5 µM in experiment [3]; 5.71 µM and > 12.5 µM in experiment [4]; 5.48 µM and 3.26 µM and > 12.5 µM in experiment [5]; above 12.5 µM in experiment [6]. The GI50 in [7] was 10.8 µM; in experiment [8], > 10.9 µM and 2.99 µM and > 12.5 µM; in experiment [9], > 10.9 µM and 5.26 µM and > 12.5 µM; in experiment [10], > 10.9 µM and 2.48 µM and > 12.5 µM. In addition, the TGI in experiment [1] was > 10.9 µM and 9 µM and > 12.5 µM; in experiment [2], 11 µM and > 12.5 µM; in experiment [3], 10.8 µM and > 12.5 µM; in experiment [4], 11 µM and > 12.5 µM; in [5], 10.6 µM and 10.5 µM and > 12.5 µM; in experiment [6], above 12.5 µM. For the same compound, the TGI in experiment [7] is 11 µM and > 12.5 µM; in experiment [8] it was > 10.9 µM and 4.91 µM and > 12.5 µM; in [9] it was > 10.9 µM and 11 µM and > 12.5 µM; in experiment [10], > 10.9 µM and 5.23 µM and > 12.5 µM.

`CN(C)Cc1ccc(NC(=O)c2cncc(C#Cc3cnc(N)c4ncccc34)c2)cc1C(F)(F)F`: the GI50 in [1] was 1.62 µM; in [2] it was 1.57 µM; in experiment [3] it was 1.4 µM; in [4] it was 0.104 µM; in experiment [5], 0.701 µM; in experiment [6] it was 1.8 µM. For the same compound, the GI50 in experiment [7] is 1.43 µM; in [8] it was 1.5 µM; in experiment [9], 1.19 µM; in [10] it was 1.43 µM. For the same compound, the TGI in experiment [1] came out at 3.16 µM; in [2], 3.48 µM; in experiment [3] it was 3.12 µM; in [4], 0.956 µM; in [5] it was 2.75 µM; in [6], 3.67 µM. Moreover, the TGI in experiment [7] was found to be 3.44 µM; in experiment [8] it was 2.98 µM; in experiment [9] it was 2.53 µM; in experiment [10] it was 2.8 µM.

Take `N[C@H]1CCC[C@@H](O)C1O` (stereo partly specified): the TGI in [1], in experiment [2], in experiment [3], in experiment [4], in [5] and in experiment [6] was above 100 µM throughout. Further, the TGI in experiment [7], in [8], in experiment [9] and in experiment [10] was above 100 µM in each case. In experiment [5], the GI50 is above 100 µM.

Consider `Nc1[nH]nc(Nc2ccccc2)c1-c1nc2ccccc2s1`, for which the GI50 in experiment [1] is 1.88 µM; in experiment [2], 2.08 µM; in experiment [3], 2.53 µM; in experiment [4], 2.79 µM; in experiment [5] it was 0.683 µM; in [6], 2.11 µM. The GI50 is 1.84 µM in experiment [7], 2.58 µM in [8], 1.4 µM in experiment [9] and 1.33 µM in [10]. Besides, the TGI worked out at 4.21 µM in [1]; 5.87 µM in [2]; 9.86 µM in experiment [3]; 8.58 µM in [4]; 7.81 µM in experiment [5]; 6.64 µM in experiment [6]. Further, the TGI in [7] came out at 8.02 µM; in [8] it was 7.29 µM; in experiment [9], 2.96 µM; in experiment [10], 7.16 µM.

Turning to `OCc1c(-c2cccs2)oc(-c2cccs2)c1CO`, the GI50 was 21.1 µM in experiment [1]; above 100 µM in experiment [2]; 44.2 µM in experiment [3]; 30.1 µM in experiment [4]; 27.9 µM in experiment [5]; 40.1 µM in experiment [6]. Further, the GI50 in experiment [7] is 32.5 µM; in experiment [8], 63.6 µM; in [9], 35.3 µM; in experiment [10], 50.5 µM. In addition, the TGI in [1] was 45.6 µM; in experiment [2], above 100 µM; in experiment [3], above 100 µM; in [4] it was 94.6 µM; in experiment [5], above 100 µM; in experiment [6] it was above 100 µM. Moreover, the TGI in experiment [7] was 60.5 µM; in experiment [8] it was above 100 µM; in experiment [9] it was above 100 µM; in experiment [10], above 100 µM.

Source of the values: PubChem BioAssay (NCI).
